From US20100136537A1, “PHOTORECEPTOR PRECURSOR CELLS” (THE REGENTS OF THE UNIVERSITY OF MICHIGAN, priority 2006, published 2010)
Entries after “also recorded” stand apart in the source; their conditions may differ.

Assays:
[1] = system: photoreceptors; test: MNU-induced photoreceptor degeneration in adult C57Bl/6 mice (TUNEL, immunostaining, ERG); format: in vivo, mouse
Protocol: Preparation of Donor Cells and Recipients. Donor cells were prepared from P0-P2 retinas of the neural retina leucine zipper (Nrl)-GFP transgenic mice (See Example 1). Nrl is a basic motif-leucine zipper transcription factor that is preferentially expressed in rod photoreceptors and required for rod differentiation (See, e.g., Swaroop et al., Proc Natl Acad Sci USA. 1992; 89:266-270; and Mears et al., Nat Genet. 2001; 29:447-452). The Nrl promoter directed expression of enhanced green fluorescent protein (EGFP) specifically to new-born rod precursors and mature rods in the Nrl-GFP transgenic mouse. Eyes were enucleated, and the neural retinas dissected and dissociated with a Papain-Protease-DNase solution. N-methyl-N-nitrosourea (MNU; Sigma, St. Louis, Mo.), an alkylating agent that induces photoreceptor degeneration by forming 7-methyldeoxyguanosine DNA adducts in the nuclei of photoreceptors, was administered at a dose of 60 mg/kg to adult C57B1/6 mice by intraperitoneal injection 7 days before transplantation (See, e.g., Doonan et al., J Neurosci. 2003; 23:5723-5731; Ogino et al., Toxicol Pathol. 1993; 21:21-25; Yuge et al., In Vivo. 1996; 10:483-488).
Tissue Processing. Two or four weeks after surgery, the animals were perfused transcardially with 4% paraformaldehyde (Merck, Darmstadt, Germany) in 0.1 M phosphate buffer after sedation with ketamine (15 mg/kg). Eyes were removed and immersion fixed with 4% paraformaldehyde at 4° C. overnight and then in 25% sucrose-PBS to cryoprotect. The specimens were embedded in an optimal cutting temperature compound (Miles, Elkhart, Ind.) and consecutive 12-μm frozen sections were sliced on a cryostat.
Immunofluorescence. […]
Electrophysiology. […] Animals were placed on a regulated heating pad under dim red illumination and electroretinograms (ERGs) were recorded with a gold loop electrode placed on the corneal surface maintained with 3% methylcellulose gel. […] The amplitude of the a-wave was measured from the prestimulus baseline to the a-wave trough. […]

[2] = system: photoreceptors; settings: MNU 60 mg/kg i.p.; cited from earlier work
[3] = system: mouse Nrl promoter; test: Nrl promoter-luciferase assay in HEK293 cells; format: cell-based; settings: dose-dependent response
From the text: (§1) Plasmid Constructs. DNA fragments of 2.5 kb (Nl), 1.2 kb (Nm), and 200 by (Ns) from the 5′-flanking region of the mouse Nrl promoter (GENBANK: AY526079; (See Akimoto et al., (2006) Proc. Natl. Acad. Sci. U.S.A. 103, 3890-3895) were amplified and cloned into pGL3-basic vector (Promega, Madison, Wis.) in-frame with the luciferase reporter gene. The following site-directed mutants of the Nrl promoter were generated from pGL3-Nl using the QUICKCHANGE site-directed mutagenesis kit (Stratagene, La Jolla, Calif.) and sequence-verified: pGL3-Nl-mutIII-1, pGL3-Nl-mutIII-2, and pGL3-Nl-mutII-1, containing deletion of the putative RAREs at positions −781 to −767, −709 to −700, and −453 to −443, respectively.
Transient transfection of HEK293 (ATCC CRL-1573) cells was performed using LIPOFECTAMINE (Invitrogen) according to the manufacturer's instructions. The wild type and mutant Nrl promoter-luciferase constructs, and pCMV-β-gal were added to the cells at a concentration of 0.1 μg and 0.05 μg, respectively. After 3 h, 100 μl of Dulbecco's modified Eagle's medium with 0 or 500 nM at RA was added to each well. Cells were harvested after 24 h in 100 μl of GLO lysis buffer (Promega), and luciferase activity was measured.

[4] = system: NRL; test: NRL expression in serum-starved Y79 cells (immunoblot, Northern blot); format: cell-based, human; settings: serum-starved Y79 cells, 10 μM RA
Protocol: Cell Culture. Y79 human retinoblastoma cells (ATCC HTB 18) and HEK293 (ATCC CRL-1573) were maintained in RPMI 1640 and Dulbecco's modified Eagle's medium, respectively, under standard conditions with 15% (v/v) fetal bovine serum (FBS), penicillin G (100 units/ml), and streptomycin (100 μg/ml) at 37° C. and 5% CO2. For serum starvation and RA treatment experiments, Y79 cells (5×10^4) were cultured in the presence or absence of the serum (same batch of serum was used in all the experiments), at RA, 9-cis-RA, cycloheximide (CHX), and 4-(E-2-(5,6,7,8-tetrahydro-5,5,8,8-tetramethyl-2-naphthalenl)-1-propenyl) benzoic acid (TTNPB) at indicated concentrations. Me2SO or ethanol was added to Y79 cells in lieu of the soluble factors as negative control.
For protein synthesis inhibition experiments, Y79 cells were serum-starved for 24 h, and then simultaneously treated with RA and CHX for 8 or 24 h. NRL expression was analyzed by immunoblotting. In another set of experiments, serum-starved Y79 cells were first incubated with RA alone for 8 or 24 h and then CHX was added. Cell extracts were then analyzed 24 h later for examining NRL expression by immunoblotting.
(§2) Protein Expression Analysis.

[5] = system: NRL; test: NRL expression in newborn rat retinal cell cultures (immunoblot); format: cell-based
Protocol: Primary cultures of new-born rat retinal cells and enriched adult porcine photoreceptors were prepared as described (See Traverso et al., (2003) Investig. Ophthalmol. Vis. Sci. 44, 4550-4558). For newborn rat retinal cultures, rat pups were anesthetized and decapitated, the retinas dissected into CO2-independent Dulbecco's modified Eagle's medium and chopped into small fragments. The fragments were washed twice in Ca/Mg-free PBS and then digested in PBS containing 0.1% papain for 25 min at 37° C. Tissue was dissociated by repeated passage through flame polished Pasteur pipettes, then seeded into tissue culture plates precoated with laminin, in Neurobasal A medium (Invitrogen) containing 2% FBS. After 48 h, medium was changed to a chemically defined formula (Neurobasal A supplemented with B27) for a further 48 h, and then treated.
Experimental Treatments and Immunochemistry. […] RA was added to test wells (1, 5, 10, 20, and 40 μM, stock solution prepared in Me2SO, 10 μl/well).
as §2

[6] = system: mouse Nrl promoter; test: Nrl promoter-luciferase assay in serum-deprived Y79 cells; format: cell-based, human; settings: pGL3-NI and pGL3-Nm constructs (with putative RAREs), 10 μM RA, 24 h
From the text: as §1
Transient Transfection and Luciferase Assay. Transient transfection of Y79 cells was performed using FUGENE 6 reagent (Roche Diagnostics, Indianapolis, Ind.). Prior to transfection, cells were serum-starved 24 h in OPTI-MEM (Invitrogen), diluted to 1.5×10^5 cells in 250 μl and seeded into 24-well plates. Transfection was performed with 0.5 μg of promoter-luciferase construct and 1.5 μl of FUGENE 6. […] Luciferase activity was measured using the Luciferase Assay System (Promega, Madison, Wis.). Experiments were repeated at least three times, and the luciferase activity was calculated as a fold change from the base line luciferase activity obtained in the presence of vector only.

[7] = system: NRL; test: NRL expression in adult pig photoreceptor cultures (immunoblot, immunocytochemistry); settings: 24 h
[8] = system: CEP290; settings: previous studies; cited from earlier work
[9] = system: chondroitin sulfate proteoglycans (CSPG); test: CS-56 staining of glial scar after subretinal injection with or without ChABC; format: in vivo, mouse; settings: ChABC 0.025 U/μl, 1 μl subretinal, MNU-treated mice
Protocol: Transplantation Procedure. One μl of dissociated Nrl-GFP+ photoreceptor cell suspension (1.0×10^5 cells/μl each) without or with chondroitinase ABC (ChABC) (0.025 U/μl, Wako, Tokyo, Japan) (Nrl group, Nrl/ChABC group, respectively) or 1 μl of PBS (sham group) was drawn into a tapered glass pipette connected to a modified tube and injected through the sclera into the subretinal space. The procedure was performed under surgical microscope.
Immunofluorescence. Sections were washed in PBS, preincubated with a blocking solution (containing 20% skim milk and 0.3% Triton X-100 in PBS) for 30 minutes, and then incubated overnight at 4° C. with primary antibodies diluted in a blocking solution (containing 5% skim milk and 0.3% Triton X-100 in PBS). The primary antibodies and working dilutions were as follows: mouse and rabbit anti-GFP (1:500, Molecular Probes, Eugene, Oreg.), mouse monoclonal CS-56 IgM antibody (1:200, Sigma) that reacts specifically with chondroitin sulfate containing proteoglycans, and anti-vesicular glutamate transporter 1 (VGluT1; 1:100, Chemicon, Hampshire, UK), a marker for active presynaptic formation (See, e.g., Fujiyama et al., J Comp Neurol. 2003; 465:234-249). Sections were incubated for 90 minutes with secondary antibodies diluted 1:500 in PBS containing 5% skim milk and 0.3% Triton X-100. […]

With CN(N=O)C(N)=O [MNU, N-methyl-N-nitrosourea] the “dark-adapted ERG response” value ([1]; 1 week after single i.p. MNU 60 mg/kg) was “does not detect a response; also recorded: no responses were detectable”, the “state of outer nuclear layer / photoreceptor layer” value ([1]; 1 week after single i.p. MNU 60 mg/kg, VGluT1 and Cytox blue staining) was “completely destroyed; also recorded: essentially destroyed” and the “TUNEL labeling of retina” value ([1]; 2 days after single i.p. MNU 60 mg/kg) was “nuclear labeling in the majority of the photoreceptor cells”. For the same compound, the “time to apoptosis in all photoreceptors after injection” value [2] was ≤ 1 week.

With CC1=C(/C=C/C(C)=C/C=C/C(C)=C/C(=O)O)C(C)(C)CCC1 [at RA] the “at RA concentration of maximum effect on pGL3-Nl luciferase activity” value [3] was 500 nM, the “incubation time after which an increase in NRL protein was observed” value [4] was 8 h and the toxicity in culture ([5]; doses above 5-20 μM (40 μM RA), newborn rat retina cells) was “some toxicity; also recorded: toxic for cell survival”. The “RA concentration giving maximal effects on NRL expression” value ([5]; newborn rat retinal cultures, 24 h) was 5 to 20 µM, the “increase in luciferase activity” value [6] was > 2 fold and the “RA concentration giving maximal effects on NRL expression” value [7] was 5 to 20 µM.

In the case of COC(=O)Nc1nc2ccc(C(=O)c3cccs3)cc2[nH]1 [nocodazole], the “centrosomal localization of CEP290 after microtubule depolymerization” value [8] is given as “does not alter centrosomal localization of CEP290”.

With chondroitinase ABC [ChABC] the “degradation of CSPG in the ECM of the glial scar at the injection site (CS-56 staining)” value [9] was “substantially, if not completely, degraded”.
